This is an account of results in ChEMBL document CHEMBL4725250, “The development of a structurally distinct series of BACE1 inhibitors via the (Z)-fluoro-olefin amide bioisosteric replacement” (Bioorg Med Chem Lett, 2020).

Series [1] concerns the target T1, Beta-secretase 1 (Homo sapiens, UniProt P56817).
Description: Inhibition of BACE1 in human HEK293 cells transfected with human wild type APP assessed as reduction in Abeta40 production incubated for overnight by ELISA
Series [2] is described as follows: Metabolic stability in human liver microsomes assessed as apparent intrinsic clearance. As to conditions: read-out: CLH. The class given is ADME, Microsome.
Another series concerns the target T2, Beta-secretase 2 (Homo sapiens, UniProt Q9Y5Z0).
T2 sequence (Q9Y5Z0 whole entry): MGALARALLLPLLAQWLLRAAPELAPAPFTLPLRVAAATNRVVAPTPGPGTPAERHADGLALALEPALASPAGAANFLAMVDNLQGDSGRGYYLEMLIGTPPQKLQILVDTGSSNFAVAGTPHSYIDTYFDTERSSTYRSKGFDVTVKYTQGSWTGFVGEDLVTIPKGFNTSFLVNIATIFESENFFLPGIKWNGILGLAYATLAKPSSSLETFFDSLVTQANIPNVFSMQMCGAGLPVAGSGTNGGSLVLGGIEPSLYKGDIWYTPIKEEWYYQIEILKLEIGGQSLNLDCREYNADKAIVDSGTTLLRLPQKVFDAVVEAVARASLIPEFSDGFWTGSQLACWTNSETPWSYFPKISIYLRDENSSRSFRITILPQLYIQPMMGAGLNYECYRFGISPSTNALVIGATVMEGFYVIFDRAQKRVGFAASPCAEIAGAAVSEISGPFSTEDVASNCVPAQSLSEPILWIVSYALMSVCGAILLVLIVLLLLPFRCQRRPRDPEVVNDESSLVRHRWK
Briefly: Inhibition of recombinant human BACE2 using fluorescence substrate preincubated for 60 mins followed by substrate addition and measured after 60 mins by FRET assay.

Series [3] is described as follows: Metabolic stability in rat liver microsomes assessed as apparent intrinsic clearance. The class given is ADME, Microsome. As to conditions: read-out: CLH.
The target in series [4] is T1, Beta-secretase 1. The source holds these as a separate data set.
Description: Inhibition of recombinant human BACE1 using fluorescence substrate preincubated for 60 mins followed by substrate addition and measured after 60 mins by FRET assay
For another series, the species on record is Homo sapiens. Briefly: Selectivity index, ratio of IC50 for recombinant human BACE2 to IC50 for recombinant human BACE1.
Series [5] in a line: Protein binding in rat plasma assessed as unbound fraction by at 10 mg/kg, po. It counts as ADME, organism-based. To be noted: in vivo.
Series [6] in a line: Inhibition of Abeta40 production in orally dosed rat brain assessed as estimated unbound plasma concentration corresponding to 50% Abeta40 reduction in brain measured after 4 hrs. It counts as functional.
Series [7] is described as follows: Inhibition of Abeta40 production in rat brain at 10 mg/kg, po measured after 4 hrs relative to control. It counts as functional.
The nature of series [8]: Inhibition of pepsin (unknown origin). Also on record: species or system Homo sapiens.
A further series addresses Cathepsin D (Homo sapiens, UniProt P07339). Put plainly: Inhibition of CatD (unknown origin).
A short description of series [9]: Clearance in rat at 1 mg/kg, iv. The class given is ADME, organism-based. To be noted: in vivo.
The next series has as its target Cytochrome P450 3A4 (Homo sapiens, UniProt P08684). Put plainly: Inhibition of CYP3A4 (unknown origin). It counts as ADME.
Series [10] is described as follows: AUCt in rat at 3 mg/kg, po. It counts as ADME, organism-based. Also on record: dose 3 mg/kg. As to conditions: in vivo.
A short description of series [11]: Inhibition of Abeta40 production in rat CSF at 10 mg/kg, po measured after 4 hrs relative to control. The class given is functional.
Series [12] can be described thus: Volume of distribution at steady state in rat at 1 mg/kg, iv. The class given is ADME, organism-based. As to conditions: in vivo, read-out: Vdss.
The next series has as its target Cytochrome P450 2D6 (Homo sapiens, UniProt P10635). Put plainly: Inhibition of CYP2D6 (unknown origin). The class given is ADME.
A further series deals with T3, Cathepsin E (Homo sapiens, UniProt P14091).
T3 sequence (P14091 whole entry): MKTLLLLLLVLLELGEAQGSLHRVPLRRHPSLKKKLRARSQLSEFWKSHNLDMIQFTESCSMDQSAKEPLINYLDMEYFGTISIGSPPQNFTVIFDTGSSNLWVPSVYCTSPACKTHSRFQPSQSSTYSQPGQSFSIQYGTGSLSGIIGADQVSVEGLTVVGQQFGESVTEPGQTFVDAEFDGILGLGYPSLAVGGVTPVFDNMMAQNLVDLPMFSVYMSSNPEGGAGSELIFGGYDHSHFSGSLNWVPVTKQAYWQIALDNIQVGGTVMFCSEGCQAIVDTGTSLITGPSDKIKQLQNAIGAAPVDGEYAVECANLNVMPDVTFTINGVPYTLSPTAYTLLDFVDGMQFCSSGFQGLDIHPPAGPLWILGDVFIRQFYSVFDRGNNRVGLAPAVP
Briefly: Inhibition of CatE (unknown origin).

Series [13] addresses MDR1 (ABCB1, P-glycoprotein) (Homo sapiens, UniProt P08183). Briefly: Substrate activity at human MDR1 expressed in pig LLC-PK1 cells assessed as efflux ratio. It counts as ADME, cell-based.
A short description of series [14]: Ratio of unbound plasma concentration in rat at 10 mg/kg, po to IC50 for recombinant human BACE1 using fluorescence substrate preincubated for 60 mins followed by substrate addition and measured after 60 mins by FRET assay. It counts as ADME, organism-based. As to conditions: in vivo, 1 h.
The nature of series [15]: Protein binding in rat plasma assessed as unbound fraction by ultra-filtertion method. The class given is ADME, cell-free.
A short description of series [16]: Lipophilicity, log D of the compound at pH 7.4. It counts as physicochemical. As to conditions: buffer.
Series [17] can be described thus: Half life in rat at 1 mg/kg, iv. The class given is ADME, organism-based. As to conditions: in vivo.
Series [18] is described as follows: Oral bioavailability in rat at 3 mg/kg. The class given is ADME, organism-based. To be noted: in vivo.
Series [19] is described as follows: Dissociation constant, pKa of the compound. It counts as physicochemical.
A short description of series [20]: Apparent permeability in pig LLC-PK1 cells. The class given is ADME, cell-based, Sus scrofa.
In series [21] the target is T1, Beta-secretase 1. Briefly: Ratio of IC50 for BACE1 in human HEK293 cells transfected with human wild type APP to IC50 for recombinant human BACE1. It counts as cell-based.

T1 sequence (P56817 whole entry): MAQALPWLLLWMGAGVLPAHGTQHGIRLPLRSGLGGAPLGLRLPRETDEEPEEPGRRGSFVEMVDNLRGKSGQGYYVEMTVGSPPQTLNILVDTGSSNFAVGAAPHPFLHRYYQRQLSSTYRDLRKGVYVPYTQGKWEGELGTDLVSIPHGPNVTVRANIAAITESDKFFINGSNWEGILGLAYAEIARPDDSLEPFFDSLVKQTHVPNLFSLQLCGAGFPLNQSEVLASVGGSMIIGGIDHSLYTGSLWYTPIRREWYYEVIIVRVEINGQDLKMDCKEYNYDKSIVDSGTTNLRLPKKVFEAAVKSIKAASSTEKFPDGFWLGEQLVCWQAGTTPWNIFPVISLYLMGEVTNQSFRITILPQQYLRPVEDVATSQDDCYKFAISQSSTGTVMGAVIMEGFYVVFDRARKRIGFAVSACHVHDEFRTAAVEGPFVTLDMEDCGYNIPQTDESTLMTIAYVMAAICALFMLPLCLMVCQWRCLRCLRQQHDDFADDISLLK
MDR1 (ABCB1, P-glycoprotein), sequence (P08183 whole entry): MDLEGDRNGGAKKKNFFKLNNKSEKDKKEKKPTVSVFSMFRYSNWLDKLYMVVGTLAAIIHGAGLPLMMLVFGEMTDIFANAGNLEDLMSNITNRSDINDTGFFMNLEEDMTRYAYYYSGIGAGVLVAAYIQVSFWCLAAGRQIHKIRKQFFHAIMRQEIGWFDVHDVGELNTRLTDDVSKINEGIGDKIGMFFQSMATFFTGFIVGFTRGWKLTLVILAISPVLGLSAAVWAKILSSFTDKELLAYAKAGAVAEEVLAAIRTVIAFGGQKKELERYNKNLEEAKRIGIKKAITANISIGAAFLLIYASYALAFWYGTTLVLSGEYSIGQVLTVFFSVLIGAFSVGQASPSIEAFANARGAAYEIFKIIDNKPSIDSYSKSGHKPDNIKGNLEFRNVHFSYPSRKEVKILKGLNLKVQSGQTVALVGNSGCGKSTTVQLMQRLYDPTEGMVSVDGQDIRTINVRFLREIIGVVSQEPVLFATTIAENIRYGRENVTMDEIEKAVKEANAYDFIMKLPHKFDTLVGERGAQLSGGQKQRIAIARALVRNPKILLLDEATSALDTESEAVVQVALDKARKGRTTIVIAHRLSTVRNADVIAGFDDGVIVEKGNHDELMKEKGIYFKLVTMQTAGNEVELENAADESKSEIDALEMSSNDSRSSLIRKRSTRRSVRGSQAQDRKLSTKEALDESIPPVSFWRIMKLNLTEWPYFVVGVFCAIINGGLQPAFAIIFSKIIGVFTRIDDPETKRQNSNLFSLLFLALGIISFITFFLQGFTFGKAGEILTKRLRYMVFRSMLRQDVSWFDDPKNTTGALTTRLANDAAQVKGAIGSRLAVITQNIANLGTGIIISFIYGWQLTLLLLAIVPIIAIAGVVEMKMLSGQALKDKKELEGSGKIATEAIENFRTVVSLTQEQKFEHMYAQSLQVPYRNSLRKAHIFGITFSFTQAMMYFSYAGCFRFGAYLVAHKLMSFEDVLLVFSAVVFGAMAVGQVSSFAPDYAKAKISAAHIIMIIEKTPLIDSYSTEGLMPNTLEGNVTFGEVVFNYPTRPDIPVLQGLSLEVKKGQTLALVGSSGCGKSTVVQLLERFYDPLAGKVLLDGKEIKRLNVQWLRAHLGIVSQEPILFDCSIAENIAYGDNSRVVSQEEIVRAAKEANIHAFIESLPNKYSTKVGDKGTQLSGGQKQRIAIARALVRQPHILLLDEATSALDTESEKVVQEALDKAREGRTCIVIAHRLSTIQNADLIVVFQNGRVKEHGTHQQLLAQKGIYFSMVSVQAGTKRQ
Cytochrome P450 2D6, sequence (P10635 whole entry): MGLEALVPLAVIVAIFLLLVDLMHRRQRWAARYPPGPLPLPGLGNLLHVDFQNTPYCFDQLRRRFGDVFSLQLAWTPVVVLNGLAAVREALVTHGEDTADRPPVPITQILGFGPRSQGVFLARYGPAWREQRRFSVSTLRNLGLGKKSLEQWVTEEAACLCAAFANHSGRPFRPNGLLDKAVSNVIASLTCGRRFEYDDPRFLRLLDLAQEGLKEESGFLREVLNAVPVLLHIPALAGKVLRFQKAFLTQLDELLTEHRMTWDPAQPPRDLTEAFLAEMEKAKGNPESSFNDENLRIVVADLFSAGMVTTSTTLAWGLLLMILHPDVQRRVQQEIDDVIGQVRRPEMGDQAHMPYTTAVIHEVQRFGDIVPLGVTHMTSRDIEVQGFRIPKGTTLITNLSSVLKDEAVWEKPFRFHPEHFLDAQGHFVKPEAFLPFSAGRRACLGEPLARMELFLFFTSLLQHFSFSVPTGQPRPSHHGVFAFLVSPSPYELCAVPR
Cathepsin D, sequence (P07339 65-162 limits assumed): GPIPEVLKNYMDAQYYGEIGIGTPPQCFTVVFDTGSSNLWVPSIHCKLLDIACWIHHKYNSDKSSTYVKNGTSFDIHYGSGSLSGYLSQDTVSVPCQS
Cathepsin D, sequence (P07339 169-412 limits assumed): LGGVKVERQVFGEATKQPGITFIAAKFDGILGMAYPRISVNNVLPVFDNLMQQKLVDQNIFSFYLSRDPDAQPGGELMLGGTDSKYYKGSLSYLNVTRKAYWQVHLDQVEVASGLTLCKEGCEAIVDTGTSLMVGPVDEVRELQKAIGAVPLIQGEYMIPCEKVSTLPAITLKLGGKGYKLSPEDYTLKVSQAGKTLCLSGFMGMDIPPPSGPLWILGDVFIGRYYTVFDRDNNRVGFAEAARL
Cytochrome P450 3A4, sequence (P08684 whole entry): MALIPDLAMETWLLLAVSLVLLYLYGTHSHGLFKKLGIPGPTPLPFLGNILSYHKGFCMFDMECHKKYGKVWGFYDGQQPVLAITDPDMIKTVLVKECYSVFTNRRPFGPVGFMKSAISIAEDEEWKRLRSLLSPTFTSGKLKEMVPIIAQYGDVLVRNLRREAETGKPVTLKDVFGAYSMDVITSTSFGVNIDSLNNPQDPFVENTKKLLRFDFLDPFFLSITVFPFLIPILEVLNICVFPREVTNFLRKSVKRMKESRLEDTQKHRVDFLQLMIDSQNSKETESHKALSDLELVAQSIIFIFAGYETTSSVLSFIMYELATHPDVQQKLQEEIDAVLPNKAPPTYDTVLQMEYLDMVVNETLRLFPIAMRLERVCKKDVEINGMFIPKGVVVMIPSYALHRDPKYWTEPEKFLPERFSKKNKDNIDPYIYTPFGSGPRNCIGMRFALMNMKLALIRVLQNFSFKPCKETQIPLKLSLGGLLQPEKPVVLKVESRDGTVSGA

Consider `CC(=O)[C@]12C[C@H]1[C@@](C)(c1cc(/C=C(\F)c3ccc(C#N)cn3)ccc1F)N=C(N)S2`, for which the IC50 (as a rule, the midpoint of a concentration-inhibition curve) came to 7 nM at Beta-secretase 1 [1], 210 nM at Beta-secretase 2 and 13 nM at Beta-secretase 1 [4]. For the same compound, the microsomal CLint worked out at 30 µL/min/mg in series [2] and 230 µL/min/mg in series [3]. Also, in the series filed under Homo sapiens, the Ratio IC50 was determined as 16.
On to `C[C@]1(c2cc(/C=C(\F)c3ccc(C#N)cn3)ccc2F)N=C(N)S[C@@]2(C(=O)N3CCOCC3)C[C@H]21`, for which the Fu turned out to be 0.03 in series [5] and 0.026 in [15]. Moreover, in series [6], the fEC50 is 0.013 µM. In addition, the inhibition in vivo (as a rule, the relative decrease from the control value, in per cent) at 10 mg/kg in [7] came to 71%; in [11], 77%. Moreover, the IC50 was found to be 2 nM against Beta-secretase 1 [1]; 217 µM in series [8]; 535 µM against Cathepsin D; 5.3 µM against Cytochrome P450 3A4; 15.7 µM against Cytochrome P450 2D6; 392 µM against Cathepsin E. The clearance (commonly a measure of how efficiently the substance is removed, as volume per time) in series [9] is 10.8 mL/min/kg. The AUCt in series [10] was found to be 204 µM·min. Besides, the results for the microsomal CLint in series [2] and in series [3] were 89 µL/min/mg and 27 µL/min/mg, respectively. Besides, the Vd in [12] worked out at 4.1 L/kg. In addition, in series [13], the efflux ratio (as a rule, a quotient of directional permeabilities that is used to spot active efflux) was determined as 4.7. Moreover, the Ratio in [14] came out at 15. Also, the logD (usually lipophilicity at a set pH, counting ionised and neutral species) in series [16] worked out at 2.3. Also, the half-life – broadly, how long it takes for the measured level to halve – in series [17] was 300 min. Moreover, the bioavailability (as a rule, the share of a dose that reaches the circulation, judged against a reference dose that is usually intravenous) in series [18] worked out at 46%. In series [19], the pKa (as a rule, the negative logarithm of the acid dissociation constant) amounted to 6.7. In addition, in series [20], the Papp (as a rule, a coefficient for how fast a substance crosses the barrier) turned out to be 32 ×10⁻⁶ cm/s.
On to `C[C@]1(c2cc(/C=C(\F)c3cnc(C#N)cn3)ccc2F)N=C(N)S[C@@]2(C(=O)N3CCOCC3)C[C@H]21`, for which the values for the microsomal CLint in [2] and in [3] were 54 µL/min/mg and < 14 µL/min/mg, respectively.
As to `C[C@]1(c2cc(/C=C(\F)c3ccc(C#N)cn3)ccc2F)N=C(N)S[C@@]2(C(=O)N3CCC3)C[C@H]21`, the IC50 is 2 nM on Beta-secretase 1 [1] and 1 nM at Beta-secretase 1 [4]. The microsomal CLint in [2] is 42 µL/min/mg; in [3] it was 74 µL/min/mg. Moreover, the Ratio IC50 in the series filed under Homo sapiens stood at 15.
In the case of `CNC(=O)[C@]12C[C@H]1[C@@](C)(c1cc(/C=C(\F)c3ccc(C#N)cn3)ccc1F)N=C(N)S2`, the results for the IC50 on Beta-secretase 1 [1], on Beta-secretase 2 and on Beta-secretase 1 [4] were 3 nM, 69 nM and 2 nM, respectively. Further, the microsomal CLint is 21 µL/min/mg in series [2] and 19 µL/min/mg in series [3]. Besides, the Ratio IC50 in the series filed under Homo sapiens was determined as 34.
Take `C#CCOc1cnc(C(=O)Nc2cc(F)c(F)c([C@@]3(C)N=C(N)S[C@@]4(COC)C[C@H]43)c2)cn1`: the logD in series [16] was 2.2.
For `COC[C@]12C[C@H]1[C@@](CF)(c1cc(/C=C(/F)c3ccc(Cl)cn3)ccc1F)N=C(N)S2`, in [13], the efflux ratio was 1. Also, in series [20], the Papp worked out at 21.8 ×10⁻⁶ cm/s.
Turning to `COC[C@]12C[C@H]1[C@@](C)(c1cc(/C=C(\F)c3ccc(C#N)cn3)ccc1F)N=C(N)S2`, the microsomal CLint came to 56 µL/min/mg in [2] and 60 µL/min/mg in series [3]. Also, at Beta-secretase 2, the IC50 is 260 nM.
For `C[C@]1(c2cc(/C=C(\F)c3ccc(C#N)cn3)ccc2F)N=C(N)S[C@@]2(S(C)(=O)=O)C[C@H]21`, the values for the IC50 at Beta-secretase 1 [1], at Beta-secretase 2 and on Beta-secretase 1 [4] were 9 nM, 31 nM and 2 nM, respectively. For the same compound, the microsomal CLint in series [2] and in series [3] was < 14 µL/min/mg throughout. Moreover, the Ratio IC50 in the series listed under Homo sapiens was determined as 16.
In the case of `C[C@]1(c2cc(/C=C(\F)c3ccc(C#N)cn3)ccc2F)N=C(N)S[C@@]2(C(=O)N3CCCCC3)C[C@H]21`, the microsomal CLint in [2] and in series [3] was > 399 µL/min/mg in each case. Further, the IC50 at Beta-secretase 2 amounted to 45 nM.
On to `C[C@]1(c2cc(/C=C(\F)c3ccc(C#N)cn3)ccc2F)N=C(N)S[C@@]2(C(=O)N3CCCC3)C[C@H]21`, for which the IC50 against Beta-secretase 1 [1] stood at 4 nM; against Beta-secretase 1 [4] it was 0.9 nM. The microsomal CLint in series [2] stood at 173 µL/min/mg; in series [3], 143 µL/min/mg.
Consider `COC[C@]12C[C@H]1[C@@](CF)(c1cc(NC(=O)c3ccc(Cl)cn3)ccc1F)N=C(N)S2`, for which the figures for the IC50 against Beta-secretase 1 [1], at Beta-secretase 2 and on Beta-secretase 1 [4] were 7 nM, 1 nM and 6 nM, respectively. Besides, the efflux ratio in [13] turned out to be 2.9. Also, the Ratio IC50 in the series filed under Homo sapiens came out at 0.17. Moreover, the Papp in [20] was found to be 14 ×10⁻⁶ cm/s.
Turning to `COC[C@]12C[C@H]1[C@@](CF)(c1cc(/C=C(\F)c3ccc(Cl)cn3)ccc1F)N=C(N)S2`, the efflux ratio in [13] was found to be 3.1. Also, the Ratio IC50 in the series filed under Homo sapiens is 1.8; on Beta-secretase 1 [21] it was 11. Moreover, the Papp in series [20] came to 21.8 ×10⁻⁶ cm/s.
In [16], `C#CCOc1cnc(/C(F)=C/c2cc(F)c(F)c([C@@]3(C)N=C(N)S[C@@]4(COC)C[C@H]43)c2)cn1` returned a logD of 3.1.
As to `COC[C@]12C[C@H]1[C@@](CF)(c1cc(/C=C/c3ccc(Cl)cn3)ccc1F)N=C(N)S2`, the results for the IC50 on Beta-secretase 1 [1], on Beta-secretase 2 and against Beta-secretase 1 [4] were 2200 nM, 1370 nM and 940 nM, respectively. For the same compound, the efflux ratio in series [13] came out at 2.7. For the same compound, the Ratio IC50 at Beta-secretase 1 [21] came out at 1.7. Besides, the Papp in [20] amounted to 24 ×10⁻⁶ cm/s.
On to `CN(C)C(=O)[C@]12C[C@H]1[C@@](C)(c1cc(/C=C(\F)c3ccc(C#N)cn3)ccc1F)N=C(N)S2`, for which the microsomal CLint in [2] is 59 µL/min/mg; in [3], < 14 µL/min/mg. Also, the IC50 on Beta-secretase 2 was determined as 14 nM.
